Data published in US20220175771A1, “CANCER TREATMENT MODALITIES” (priority 2017, published 2022).

How the values were obtained:
[1] = tested on: SMARCA2/SMARCA4 dual loss NSCLC cell line xenografts; test: NSCLC xenograft model in vivo; settings: ~250 mg/kg body weight
[2] = Oral bioavailability; settings: in vivo

Structure (SMILES): CCN(c1cc(-c2ccc(CN3CCOCC3)cc2)cc(C(=O)NCc2c(C)cc(C)[nH]c2=O)c1C)C1CCOCC1 [Compound 44, tazemetostat]
- tumor growth inhibition ([1]; dual loss xenografts compared with SMARCA4 single loss xenografts): more prominent
- tumor regression ([1]; in two of the four SMARCA2/SMARCA4 dual loss cell lines): tumor regression was observed
- oral bioavailability [2]: orally bioavailable
